Legend:
Type in all cases: cell-based, human
[1] = tested on: STAT1 and 3; assay: STAT complex formation in serum-starved cells treated with AHL alone (EMSA); settings: serum-starved BR293 cells; up to 2 h
Description: Cells were lysed and the DNA-binding activity of STAT1 and 3 was examined by EMSA.

[2] = tested on: BR293 cells; assay: DAPI staining, fluorescence microscopy (apoptosis); settings: full medium (10% FCS); 24 h
Protocol: OdDHL blocks BC cell oroliferation and induces apoptosis. BR293 cells were grown in full medium (10% FCS) in the absence or presence of OdDHL or the control OHHL. After 24 h, cell were harvested, stained with DAPI and examined by fluorescence microscopy.

[3] = tested on: Akt/PKB; assay: Akt/PKB S473 phosphorylation in serum-stimulated cells (P13K survival pathway); settings: for Akt/PKB phosphorylation in serum-stimulated cells: BR293, MCF-7 and MDA-MB-468 cells, Wortmannin 200 nM, AHLs 100 μM
Protocol: Cell lysates were then prepared and analysed by Western blotting for Akt/PKB phosphorylation with an antibody specific for Akt/PKB phosphorylated on S473 (p-Akt, upper panel) and subsequently for total Akt/PKB content with an antibody for Akt/PKB (lower panel).
In the bottom section of FIG. 21, BR293 cells were serum-starved (lane 1) or starved and stimulated with 10% FCS for 2 hours alone (lane 2) or in the presence of increasing concentrations of OdDHL (lanes 3-6) or 100 μM OHHL (lane 7) or 200 nM Wortmannin (lane 8). Cell lysates were prepared and analysed by Western blotting for Akt/PKB phosphorylation with an antibody specific for Akt/PKB phosphorylated on S473 (upper panel) and subsequently for total Alt/PKB content with an antibody for Akt/PKB (lower panel).

[4] = tested on: STAT3; assay: Serum-induced STAT3 tyrosine phosphorylation (immunoblot)
Protocol: (§1) For immunoprecipitation and immunoblotting experiments, cells were grown to confluence in 10 cm dishes and maintained in full medium or starved in serum-free medium overnight before the application of appropriate stimuli. Lysates were prepared in TBSN buffer (50 mM Tris-HCl pH7.5, 150 mM NaCl, 1 mM EDTA, 1% NP-40) supplemented with protease inhibitors (1 mM Na3 VO4, 10 mM Na4P2O7, 10 mM NaF, 5 mM EGTA, 10 mM Benzamidine, 0.2 mM PMSF and 1 μg/ml each of leupeptin, aprotinin, pepstatin). Lysates were cleared by centrifugation at 16,000×g for 10 minutes and used directly for immunoprecipitations or stored at −20° C. for further use.
Equal amounts of lysates were incubated with the appropriate antibody for 2 hours at 4° C.
(§2) Immune complexes were then allowed to bind to protein A-Sepharose beads for 1 hour at 4° C. and collected by centrifugation. Immunoprecipitates were washed three times in 100 mM Tris-HC1 pH 7.5, 100 nM NaCl, 1 mM EDTA, 0.1 mM PMSF, 0.5% NP-40. Thereafter, samples were taken up in sodium dodecyl sulphate (SDS) loading buffer and boiled for 5 min.
Samples were separated by electrophoresis through 6% polyacrylamide-SDS gels. Proteins were then transferred to polyvinylidene difluoride (PVDF) membranes with a semi-dry electroblotting apparatus. The membranes were incubated with appropriate primary antibodies at room temperature for 1 hour or 4° C. overnight according to suppliers' instructions, washed and stained with horseradish peroxidase-coupled secondary antibodies. The membranes were developed with an enhanced chemiluminescence kit (Amersham).
as §1, with “Na3VO4,” for “Na3 VO4,”, “aprotinin and” for “aprotinin,”, “use. AG490 was purchased from Sigma; PD153035 was provided by Glaxo-Smith-Kline and PD168393 was purchased from Calbiochem.” for “use.”
as §2, with “Equal amounts of lysates were incubated with the appropriate antibody for 2 hours at 4° C. Immune” for “Immune”, “in 10” for “in 100”, “mM Tris-HCl” for “mM Tris-HC1”, “100 mM” for “100 nM”

[5] = tested on: ERKs; assay: ERK phosphorylation (Western blotting); settings: for activation of ERKs by TPA (phosphorylation of ERK½): BR293 cells; for activation of ERKs in response to serum: result not shown
Protocol: ERKs are unaffected by OdDHL (a) BR293 cells were serum-starved (lane 1) or starved and stimulated with TPA for 30 min alone (lane 2) or in the presence of increasing concentrations of OdDHL (lanes 3-6) or 100 μM OHHL (lane 7). Cell lysates were prepared and analysed by Western blotting for ERK phosphorylation with an antibody specific for phospho-ERK½ (upper panel) and for ERK content with an antibody against ERKs (lower panel). (b) BR293 cells were serum-starved (lane 1) or starved and stimulated with Anisomycin for 30 min alone (lane 2) or in the presence of increasing concentrations of OdDHL (lanes 3-6) or 100 μM OHHL (lane 7). Cell lysates were prepared and analysed by Western blotting for JNK/SAPK phosphorylation with an antibody specific for phospho-JNKs (upper panel) and for SAPK/JNK content with an antibody against JNKs (lower panel). (c) BR293 cells were treated as described in (b) and lysates were analysed by Western blotting for p38^MAPK phosphorylation with an antibody specific for phospho-p38 (upper panel) and for p38 content with an antibody against p38 (lower panel).

[6] = tested on: BR293 cells; assay: Cell proliferation assay (cell counting); settings: for growth of cultured cells (confluence): full medium, 48 h, 100 μM (FIG. 16a)
Protocol: Equal numbers of BR293 and MDA-MB-468 cells were seeded in MEM containing 10% FCS into 10 cm dishes. […]. For the 48 time points, fresh medium containing the appropriate inhibitor was applied to the cells after 24 hours. Controls were allowed to grow for 48 hours in the absence of inhibitor. Thereafter, all the cells were washed twice with ice cold PBS, harvested and counted under a phase-contrast microscope. Values are expressed as averages+S.D. (n=3).
Equal numbers of BR293, MCF-10F, MCF-7, MDA-MB-468, HKEK293 and COS1 cells were seeded in the appropriate growth medium into 10 cm dishes. Cells were allowed to grow in the presence of various concentrations of OdDHL or OHHL for 24 or 48 hours. For the 48-hour time points, fresh medium containing the appropriate inhibitor was applied to the cells after 24 hours. Controls were allowed to grow for 48 hours in the absence of inhibitor. Thereafter, all the cells were washed twice with ice cold PBS, harvested and counted under a phase-contrast microscope. Values are expressed as averages ±S.D. (n=3).

Row | SMILES | STAT complex formation by AHL alone [1] | nuclear morphology / viability after DAPI staining [2] | Akt/PKB phosphorylation in serum-stimulated cells [3] | effect on serum-induced STAT3 tyrosine phosphorylation ([4]; BR293 cells, 100 μM) | activation of ERKs by TPA (phosphorylation of ERK½) [5] | activation of ERKs in response to serum [5] | growth of cultured cells (confluence) [6] | effective concentration for blocking Akt/PKB phosphorylation ([3]; titration in BR293 cells) | STAT3 phosphorylation at sub-inhibitory concentration ([4]; BR293 cells, 50 μM OdDHL) | delayed STAT3 phosphorylation in response to serum ([4]; BR293 cells, 100 μM pretreatment (FIG. 18c)) | serum-induced phosphorylation of STAT3 ([4]; BR293 cells, pre-incubation (FIG. 11 upper panel)) | concentration at which serum-induced STAT3 tyrosine phosphorylation was inhibited ([4]; BR293 cells, pretreatment 15 minutes with increasing concentrations) | threshold concentration for inactivation of serum-induced STAT3 phosphorylation ([4]; FIG. 15) | inhibition of proliferation ([6]; over a 48-hour period)
1 | CCCC(=O)CC(=O)N[C@H]1CCOC1=O [OHHL, N-(3-oxohexanoyl)-L-homoserine lactone, reference compound] | did not induce STAT complex formation | remained viable | had no effect | only a slight effect | Neither OdDHL nor OHHL had any effect | Neither OdDHL nor OHHL had any effect | reached confluence in 48 hours | – | – | – | – | – | – | –
2 | CCCCCCCCCC(=O)CC(=O)N[C@H]1CCOC1=O [OdDHL, N-(3-oxo-dodecanoyl)-L-homoserine lactone] | did not induce STAT complex formation | induced DNA condensation and nuclear fragmentation | blocked phosphorylation of Akt/PKB to a similar degree as Wortmannin | – | Neither OdDHL nor OHHL had any effect | Neither OdDHL nor OHHL had any effect | grew poorly or not at all | above 50 μM | small increase | prevented the delayed STAT3 phosphorylation in response to serum | blocked the serum-induced phosphorylation of STAT3 | 100 µM | above 50 μM | 70%-80%
